Measured values from patent US11648254B2 (Kumquat Biosciences Inc., priority 2021, dated 2023).
Read-outs that look alike come from different tables or passages of the source.

Assays:
[1] = test system: NCI-H1975 cells (EGFR T790M L858R); test: EGFR-SOS cellular inhibition assay (CellTiter-Glo, 3D); type: cell-based; settings: Homo sapiens
[2] = test system: MIA PaCa-2 cells (K-Ras G12C); test: Ras-SOS cellular growth inhibition assay (CellTiter-Glo, 3D); type: cell-based; settings: Homo sapiens
How it was run: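 MIA PaCa-2 cells grown in ultra-low-attachment plates (3D) in DMEM/Ham's F12 with 10% FCS and 2.5% horse serum, treated the day after seeding with a 9-point 3-fold compound series for about 5 days. Viability by CellTiter-Glo luminescence; IC50 from four-parameter fit.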

SOS1 = SOS1 (Homo sapiens (Human), UniProt Q07889); test: Ras-SOS interaction assay (HTRF); type: biochemical
[3] = 120 h, NCI-H1975, 3D proliferation, about 5 days, read-out: Bio-Cell-Prolif-3D (H1975 IC50)
[4] = NCI-H1975, EGFR T790M L858R, read-out: IC50 in inhibiting growth of NCI-H1975 cell line
[5] = MIA PaCa-2, 120 h, MIA PaCa-2, 3D proliferation, about 5 days, read-out: Bio-Cell-Prolif-3D (MiaPaca2 IC50)
[6] = MIA PaCa-2, MIA PaCa-2, read-out: IC50 in inhibiting MIA PaCa-2 cell growth
[7] = K-RasG13D utilized, read-out: IC50 inhibition of SOS
[8] = K-RasG13D, read-out: IC50 value against SOS1

SOS1, sequence (Q07889 564-1049): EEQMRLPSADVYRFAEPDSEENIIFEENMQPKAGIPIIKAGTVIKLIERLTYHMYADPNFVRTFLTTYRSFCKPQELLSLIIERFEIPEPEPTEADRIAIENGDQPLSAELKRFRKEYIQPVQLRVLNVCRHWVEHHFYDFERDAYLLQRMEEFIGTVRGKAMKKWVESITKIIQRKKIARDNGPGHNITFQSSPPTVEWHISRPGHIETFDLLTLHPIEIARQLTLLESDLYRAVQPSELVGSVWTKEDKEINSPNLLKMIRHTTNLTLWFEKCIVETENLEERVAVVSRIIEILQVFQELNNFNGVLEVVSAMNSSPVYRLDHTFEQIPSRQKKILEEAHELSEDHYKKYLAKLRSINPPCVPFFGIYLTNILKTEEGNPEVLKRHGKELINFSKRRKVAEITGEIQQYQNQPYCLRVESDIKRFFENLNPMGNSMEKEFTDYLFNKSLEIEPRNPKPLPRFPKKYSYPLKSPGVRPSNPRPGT

SMILES | IC50 [1, 3] | IC50 [1, 4] | IC50 [2, 5] | IC50 [2, 6] | IC50 (SOS1; [7]) | IC50 (SOS1; [8])
COc1nc2nc(C)nc(N[C@H](C)c3cccc(C(F)F)c3F)c2cc1CN1CCN(C(C)C)CC1 [Compound 105, (R)—N-(1-(3-(difluoromethyl)-2-fluorophenyl)ethyl)-6-((4-isopropylpiperazin-1-yl)methyl)-7-methoxy-2-methylpyrido[2,3-d]pyrimidin-4-amine] | ≤ 1 µM | < 0.5 µM | ≤ 1 µM | < 0.5 µM | < 0.1 µM | < 0.05 µM
Cc1nc(N[C@H](C)c2cccc(C(F)(F)C3CCN(C(C)C)CC3)c2F)c2cc(C3CCN(C(C)C)CC3)c(Cl)nc2n1 [Compound 222, (R)-7-chloro-N-(1-(3-(difluoro(1-isopropylpiperidin-4-yl)methyl)-2-fluorophenyl)ethyl)-6-(1-isopropylpiperidin-4-yl)-2-methylpyrido[2,3-d]pyrimidin-4-amine] | ≤ 1 µM | < 0.5 µM | ≤ 1 µM | < 0.5 µM | < 0.1 µM | < 0.05 µM
Cc1nc(N[C@H](C)c2cccc(C(F)(F)CO)c2)c2cc(C3(C#N)CC3)c(Cl)nc2n1 [Compound 194, (R)-1-(7-chloro-4-((1-(3-(1,1-difluoro-2-hydroxyethyl)phenyl)ethyl)amino)-2-methylpyrido[2,3-d]pyrimidin-6-yl)cyclopropane-1-carbonitrile] | ≤ 1 µM |  | ≤ 1 µM | < 0.5 µM | < 0.1 µM | < 0.05 µM
COc1nc2nc(C)nc(N[C@H](C)c3cccc(C(F)(F)CO)c3)c2cc1C1(C#N)CC1 [Compound 179, (R)-1-(4-((1-(3-(1,1-difluoro-2-hydroxyethyl)phenyl)ethyl)amino)-7-methoxy-2-methylpyrido[2,3-d]pyrimidin-6-yl)cyclopropane-1-carbonitrile] | ≤ 1 µM | < 0.5 µM | ≤ 1 µM | < 0.5 µM | < 0.1 µM | < 0.05 µM
CC(C)N1CCN(c2cc3c(N[C@H](C)c4cccc(C(F)(F)F)c4F)ncnc3nc2Cl)CC1 [Compound 394, (R)-7-chloro-N-(1-(2-fluoro-3-(trifluoromethyl)phenyl)ethyl)-6-(4-isopropylpiperazin-1-yl)pyrido[2,3-d] pyrimidin-4-amine] | ≤ 1 µM | < 0.5 µM | ≤ 1 µM | < 0.5 µM | < 0.1 µM | < 0.05 µM
Cc1nc(N[C@H](C)c2cccc(C(F)(F)F)c2C)c2cc(C3CCS(=O)(=O)CC3)c(OC3COC3)nc2n1 [Compound 249, (R)-4-(2-methyl-4-((1-(2-methyl-3-(trifluoromethyl)phenyl)ethyl)amino)-7-(oxetan-3-yloxy)pyrido[2,3-d]pyrimidin-6-yl)tetrahydro-2H-thiopyran 1,1-dioxide] | ≤ 1 µM | < 0.5 µM | 1 to 10 µM |  | < 0.1 µM | < 0.05 µM
COc1nc2ncnc(N[C@H](C)c3cccc(C(C)(F)F)c3F)c2cc1N1CCS(=O)(=O)CC1 [Compound 292, (R)-4-(4-((1-(3-(1,1-difluoroethyl)-2-fluorophenyl)ethyl)amino)-7-methoxypyrido[2,3-d]pyrimidin-6-yl)thiomorpholine 1,1-dioxide] | ≤ 1 µM | < 0.5 µM | ≤ 1 µM | < 0.5 µM | < 0.1 µM | < 0.05 µM
COc1nc2ncnc(N[C@H](C)c3cccc(C(F)F)c3F)c2cc1C1CCN(C)CC1 [Compound 412, (R)-N-(1-(3-(difluoromethyl)-2-fluorophenyl)ethyl)-7-methoxy-6-(1-methylpiperidin-4-yl)pyrido[2,3-d] pyrimidin-4-amine] | ≤ 1 µM | < 0.5 µM | ≤ 1 µM | < 0.5 µM | < 0.1 µM | < 0.05 µM
COc1nc2nc(C)nc(N[C@H](C)c3cccc(C(F)(F)F)c3F)c2cc1C1CCN(C)CC1 [Compound 309, (R)-N-(1-(2-fluoro-3-(trifluoromethyl)phenyl)ethyl)-7-methoxy-2-methyl-6-(1-methylpiperidin-4-yl)pyrido[2,3-d]pyrimidin-4-amine] | ≤ 1 µM | < 0.5 µM | ≤ 1 µM |  | < 0.1 µM | < 0.05 µM
CCN1CCN(c2cc3c(N[C@H](C)c4cccc(C(F)(F)F)c4C)nc(C)nc3nc2OC)CC1 [Compound 350, (R)-6-(4-ethylpiperazin-1-yl)-7-methoxy-2-methyl-N-(1-(2-methyl-3-(trifluoromethyl)phenyl)ethyl)pyrido [2,3-d]pyrimidin-4-amine] | ≤ 1 µM | < 0.5 µM | ≤ 1 µM | < 0.5 µM | < 0.1 µM | < 0.05 µM
COc1nc2nc(C)nc(N[C@H](C)c3cccc(C(F)(F)CO)c3)c2cc1C1CCS(=O)(=O)CC1 [Compound 239, (R)-4-(4-((1-(3-(1,1-difluoro-2-hydroxyethyl)phenyl)ethyl)amino)-7-methoxy-2-methylpyrido[2,3-d]pyrimidin-6-yl)tetrahydro-2H-thiopyran 1,1-dioxide] | ≤ 1 µM | < 0.5 µM | ≤ 1 µM | < 0.5 µM | < 0.1 µM | < 0.05 µM
CCN1CCN(c2cc3c(N[C@H](C)c4cccc(C(F)F)c4F)nc(C)nc3nc2OCCOC)CC1 [Compound 314, (R)-N-(1-(3-(difluoromethyl)-2-fluorophenyl)ethyl)-6-(4-ethylpiperazin-1-yl)-7-(2-methoxyethoxy)-2-methylpyrido[2,3-d] pyrimidin-4-amine] | ≤ 1 µM |  | ≤ 1 µM | < 0.5 µM | < 0.1 µM | < 0.05 µM
Cc1nc(N[C@H](C)c2cccc(C(F)F)c2F)c2cc(N3CCN(C(C)C)CC3)c(OC3COC3)nc2n1 [Compound 336, (R)-N-(1-(3-(difluoromethyl)-2-fluorophenyl)ethyl)-6-(4-isopropylpiperazin-1-yl)-2-methyl-7-(oxetan-3-yloxy)pyrido [2,3-d]pyrimidin-4-amine] | ≤ 1 µM | < 0.5 µM | ≤ 1 µM | < 0.5 µM | < 0.1 µM | < 0.05 µM
COc1nc2nc(C)nc(N[C@H](C)c3cccc(C(F)F)c3F)c2cc1C1(C#N)CC1 [Compound 101, 1-(4-((R)-1-(2-fluoro-3-(difluoromethyl)phenyl)ethylamino)-7-methoxy-2-methylpyrido[2,3-d]pyrimidin-6-yl)cyclopropanecarbonitrile] | ≤ 1 µM |  | ≤ 1 µM |  | < 0.1 µM | 
COc1nc2nc(C)nc(N[C@H](C)c3cccc(C(F)(F)CCC4CNC4)c3F)c2cc1C1(C#N)CC1 [Compound 172, (R)-1-(4-((1-(3-(3-(azetidin-3-yl)-1,1-difluoropropyl)-2-fluorophenyl)ethyl)amino)-7-methoxy-2-methylpyrido[2,3-d]pyrimidin-6-yl)cyclopropane-1-carbonitrile] | ≤ 1 µM | < 0.5 µM | 1 to 10 µM |  | < 0.1 µM | < 0.05 µM
Cc1nc(N[C@H](C)c2cccc(C(F)(F)C(C)(C)O)c2F)c2cc(C3(C#N)CC3)c(OC3COC3)nc2n1 [Compound 245, (R)-1-(4-((1-(3-(1,1-difluoro-2-hydroxy-2-methylpropyl)-2-fluorophenyl)ethyl)amino)-2-methyl-7-(oxetan-3-yloxy)pyrido[2,3-d]pyrimidin-6-yl)cyclopropane-1-carbonitrile] | 1 to 10 µM |  | 1 to 10 µM |  | < 0.1 µM | < 0.05 µM
C[C@@H](Nc1ncnc2nc(Cl)c(N3CCS(=O)(=O)CC3)cc12)c1cccc(C(F)F)c1F [Compound 261, (R)-4-(7-chloro-4-((1-(3-(difluoromethyl)-2-fluorophenyl)ethyl)amino)pyrido [2,3-d]pyrimidin-6-yl)thiomorpholine 1,1-dioxide] | ≤ 1 µM | < 0.5 µM | ≤ 1 µM | < 0.5 µM | < 0.1 µM | < 0.05 µM
CC(C)N1CCC(c2cc3c(N[C@H](C)c4cccc(C(F)(F)C5CCN(C(C)C)CC5)c4)ncnc3nc2Cl)CC1 [Compound 268, (R)-7-chloro-N-(1-(3-(difluoro(1-isopropylpiperidin-4-yl)methyl)phenyl)ethyl)-6-(1-isopropylpiperidin-4-yl)pyrido[2,3-d] pyrimidin-4-amine] | ≤ 1 µM | < 0.5 µM | ≤ 1 µM | < 0.5 µM | < 0.1 µM | < 0.05 µM
Cc1nc(N[C@H](C)c2cccc(C(F)(F)C(C)(C)O)c2F)c2cc(C3(C#N)CC3)c(N3CCN(C(C)C)CC3)nc2n1 [Compound 244, (R)-1-(4-((1-(3-(1,1-difluoro-2-hydroxy-2-methylpropyl)-2-fluorophenyl)ethyl)amino)-7-(4-isopropylpiperazin-1-yl)-2-methylpyrido[2,3-d]pyrimidin-6-yl)cyclopropane-1-carbonitrile] | ≤ 1 µM | < 0.5 µM | ≤ 1 µM | < 0.5 µM | < 0.1 µM | < 0.05 µM
COc1nc2nc(C)nc(N[C@H](C)c3cccc(C(F)F)c3F)c2cc1C1CCN(C(C)C)CC1 [Compound 112, (R)-N-(1-(3-(difluoromethyl)-2-fluorophenyl)ethyl)-6-(1-isopropylpiperidin-4-yl)-7-methoxy-2-methylpyrido[2,3-d]pyrimidin-4-amine] | ≤ 1 µM | < 0.5 µM | ≤ 1 µM | < 0.5 µM | < 0.1 µM | < 0.05 µM
